Measurements taken from patent EP1171107B1, “USE OF A PHARMACEUTICAL COMPOSITION IN THE MANUFACTURE OF A MEDICAMENT FOR THE TREATMENT OF PATHOLOGICAL CONDITIONS OF THE EYE CAUSED BY BACTERIA, VIRUSES, FUNGI, YEASTS AND PROTOZOA” (Dr. GERHARD MANN chem.-pharm. Fabrik GmbH, priority 1999, dated 2000).
Structures can show the parent of a compound that is named as a salt.

What was measured:
S.aureus = assay: Quantitative germ count (re-isolation, surface method) after inoculating the test preparation; type: cell-based; settings: Ausgangskeimzahl 2,6 x 10^5 KBE/ml
Outline: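 Test preparations (5 ml) inoculated with ca. 10^5 CFU/ml of each strain, one tube per time point. After 2, 6, 8, 24, 32, 48 and 72 h, cells pelleted, washed and resuspended in NaCl-peptone buffer, then spiral-plated on Caso agar and incubated at 33±2 °C up to 4 days. Detection limit 100 CFU/ml.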

Alle Testkeime = assay: Overall assessment: time until all test germs are eliminated (count and enrichment); type: cell-based; settings: time after inoculation; all six test germs
Method: Escherichia (E.coli) Staphylococcus (S.aureus) Streptococcus (Sc.) Pneumoniae Pseudomonas (P.aeruginosa) Staphylococcus (S. epidermidis) Haemophilus (H. influenzae)
Die verschiedenen Testsubstanzen a. bis j. wurden jeweils zu 5 ml in sterile Zentrifugenröhrchen abgefüllt und mit ca. 10^5 KBE^*/ml (* = koloniebildende Einheiten) der oben genannten Testkeime kontaminiert. Pro Substanz wurde für jeden Testkeim und jede zu prüfende Testzeit ein separater Ansatz angeimpft, d.h.10 Testsubstanzen zu jeweils 7 Testzeiten und 6 Testkeime (= insgesamt 502 Testansätze). Nach 2, 6, 8, 24, 32, 48 und 72 Stunden wurde dann der jeweilige Testansatz 10 Minuten bei 3000 rpm abzentrifugiert. Der Überstand wurde dekantiert und das Pellet in 5 ml NaCl Peptonpuffer aufgenommen und resuspendiert. Die Suspension wurde erneut 10 Minuten bei 3000 rpm abzentrifugiert und 5 ml NaCl-Peptonpuffer aufgenommen und mittels Vortex homogenisiert.
Die anschließende Keimzahlbestimmung erfolgte im Oberflächenverfahren durch Ausspiralisieren eines 10011 Aliquots auf Caso-Agar bzw. für H. influenzae auf Kochblut-Agar. Die Platten wurden bei 33±2°C für max. 4 Tage bebrütet. Die Nachweisgrenze des Verfahrens liegt bei 100 KBE/ml.
Jeweils 2 ml der Testansätze wurden in 20 ml Caso-Bouillon oder für H. influenzae, in Fildes-Medium der Firma Becton Dickinson, ARt. […]

Compound | Ergebnis der Reisolierung (in KBE/ml) (S.aureus; 2 h after inoculation) | Ergebnis der Reisolierung (in KBE/ml) (S.aureus; 4 h after inoculation) | Ergebnis der Reisolierung (in KBE/ml) (S.aureus; 6 h after inoculation) | Ergebnis der Reisolierung (in KBE/ml) (S.aureus; 8 h after inoculation) | Ergebnis der Reisolierung (in KBE/ml) (S.aureus; 24 h after inoculation) | Ergebnis der Reisolierung (in KBE/ml) (S.aureus; 32 h after inoculation) | Ergebnis der Reisolierung (in KBE/ml) (S.aureus; 48 h after inoculation) | Ergebnis der Reisolierung (in KBE/ml) (S.aureus; 72 h after inoculation) | Testkeime nach Inokulation der Zubereitung auch qualitativ nicht mehr nachweisbar (Alle Testkeime)
CCCCCCCCCCCC[N+](C)(C)Cc1ccccc1 [Benzalkoniumchlorid 0,005 Gew.-%, Benzododeciniumchlorid] | <100 KBE/ml | <100 KBE/ml | <100 KBE/ml | <100 KBE/ml | <100 KBE/ml | <100 KBE/ml | <100 KBE/ml | <100 KBE/ml | 
O=C(O)c1cn(C2CC2)c2cc(N3CCNCC3)c(F)cc2c1=O [Ciprofloxacin HCl 0,35 Gew.-%, Ciprofloxacin HCl, reference compound] | <100 KBE/ml | <100 KBE/ml | <100 KBE/ml |  | <100 KBE/ml | <100 KBE/ml | <100 KBE/ml | <100 KBE/ml | 
CC1COc2c(N3CCN(C)CC3)c(F)cc3c(=O)c(C(=O)O)cn1c23 (stereo not drawn) [Ofloxacin 0,3 Gew.-%, Ofloxacin, reference compound] | <100 KBE/ml | <100 KBE/ml | <100 KBE/ml | <100 KBE/ml | <100 KBE/ml | <100 KBE/ml | <100 KBE/ml | <100 KBE/ml | 24 Stunden
Benzalkoniumchlorid [Benzalkoniumchlorid 0,001 Gew.-%] | <100 KBE/ml | <100 KBE/ml | <100 KBE/ml | <100 KBE/ml | <100 KBE/ml | <100 KBE/ml | <100 KBE/ml | <100 KBE/ml | 
Benzalkoniumchlorid [Benzalkoniumchlorid 0,006 Gew.-%] | <100 KBE/ml | <100 KBE/ml | <100 KBE/ml | <100 KBE/ml | <100 KBE/ml | <100 KBE/ml | <100 KBE/ml | <100 KBE/ml | 
Benzalkoniumchlorid [Benzalkoniumchlorid 0,0025 Gew.-%] | <100 KBE/ml | <100 KBE/ml | <100 KBE/ml | <100 KBE/ml | <100 KBE/ml | <100 KBE/ml | <100 KBE/ml | <100 KBE/ml | 
